Data: patent US11464783B2, “Heterocyclic compounds” (Aligos Therapeutics, Inc., priority 2019, dated 2022)
pEC50: −log10 of the molar value.

System: HBV
Experiment: HBV-DNA Antiviral Assay Using HepG2.2.15 Cells
Format: cell-based
Details: Hepatitis B virus, HepG2.2.15, 168 h, extracellular HBV DNA by qPCR, day 7
Protocol: The following assay procedure describes the HBV antiviral assay. This assay uses HepG2.2.15 cells, which have been transfected with HBV genome, and extracellular HBV DNA quantification as endpoint. Cell viability is assessed in parallel by measuring the intracellular ATP content using the CellTiter-Glo® reagent from Promega.
On day 0, HepG2.2.15 cells were seeded in 96-well plates at a density of 6.0×10^4 cells/well (0.1 mL/well). The cells were incubated at 37° C. and 5% CO2.
On day 1, the test articles were diluted and added to cell culture wells (8 concentrations, 4-fold dilution, in duplicate). GLS4, Tenofovir and Sorafenib were used as reference compounds. 100 μL of culture medium containing the compounds was added to the plate, and the final total volume per well was 200 μL. The final concentration of DMSO in the culture medium was 0.5%. The plate map of compound treatment is shown below. The cells were cultured at 37° C. and 5% CO2 for 3 days.
On day 4, the plates were refreshed with culture media with compounds.
On day 7, cell viability was assessed using the CellTiter-Glo®, and the cell culture supernatants were collected for determination of HBV DNA by qPCR.
Extracellular DNA was isolated with QIAamp 96 DNA Blood Kit per the manufacturer's manual. HBV DNA was then quantified by qPCR with HBV specific primers and probes as specified in Table 1 using the FastStart Universal MasterMix from Roche on an ABI-7900HT. The PCR cycle program consisted of 95° C. for 10 min, followed by 40 cycles at 95° C. for 15 sec and 60° C. for 1 min.
A DNA standard was prepared by dilution of the pAAV2 HBV1.3 plasmid with concentrations ranging from 10 to 1×10^7 copies/uL and used to generate a standard curve by plotting Ct value vs. the concentration of the HBV plasmid DNA standard. The quantity of HBV DNA in each sample was determined by interpolating from the standard curve.
Cell viability was calculated as follows: % Cell viability=(luminescence value of test sample−average luminescence value of blank)/(average luminescence value of 0.5% DMSO control−average luminescence of blank)×100%. HBV DNA inhibition was calculated as follows: 100-(HBV DNA copy number of test sample−HBV DNA copy number of ETV)/HBV DNA copy number of 0.5% DMSO control−HBV DNA copy number of ETV)×100%. The CC50, EC50 and EC90 values were determined by dose-response curves fitted by GraphPad Prism using “log (agonist) vs. response-Variable slope”.

| Structure (SMILES) | pEC50 |
| --- | --- |
| O=C(c1ccc(Br)c(Cl)c1)N1CCS(=O)(=O)C(c2cccs2)C1 (stereo not drawn) [Compound 6a, (4-bromo-3-chloro-phenyl)-[1,1-dioxo-2-(2-thienyl)-1,4-thiazinan-4-yl]methanone] | ≥ 7.00 |
| O=C(c1ccc(Cl)cc1F)N1CCS(=O)(=O)C(c2cccs2)C1 (stereo not drawn) [Compound 10a, (4-chloro-2-fluoro-phenyl)-[1,1-dioxo-2-(2-thienyl)-1,4-thiazinan-4-yl]methanone] | < 5.30 |
| O=C(c1ccc(Cl)cc1Cl)N1CCS(=O)(=O)C(c2cccs2)C1 (stereo not drawn) [Compound 11a, (2,4-dichlorophenyl)-[1,1-dioxo-2-(2-thienyl)-1,4-thiazinan-4-yl]methanone] | 5.30 to 6.30 |
| O=C(c1cccc(Cl)c1F)N1CCS(=O)(=O)C(c2cccs2)C1 (stereo not drawn) [Compound 14a, (3-chloro-2-fluoro-phenyl)-[1,1-dioxo-2-(2-thienyl)-1,4-thiazinan-4-yl]methanone] | < 5.30 |

Same assay, conditions: extracellular HBV DNA by qPCR, day 7

| Structure (SMILES) | pEC50 |
| --- | --- |
| O=C(c1ccc(Cl)c(Cl)c1)N1CCS(=O)(=O)C(c2cccs2)C1 (single isomer, unassigned) [Compound 8a, (3,4-dichlorophenyl)-[1,1-dioxo-2-(2-thienyl)-1,4-thiazinan-4-yl]methanone] | 5.30 to 6.30 |
| O=C(c1ccc(Cl)c(Cl)c1)N1CCS(=O)(=O)C(c2cccs2)C1 (single isomer, unassigned) [Compound 8b, (3,4-dichlorophenyl)-[1,1-dioxo-2-(2-thienyl)-1,4-thiazinan-4-yl]methanone] | 6.30 to 7.00 |
| Cc1cc(C(=O)N2CCS(=O)(=O)C(c3cccs3)C2)ccc1Cl (single isomer, unassigned) [Compound 9a, (4-chloro-3-methyl-phenyl)-[1,1-dioxo-2-(2-thienyl)-1,4-thiazinan-4-yl]methanone] | 5.30 to 6.30 |
| Cc1cc(C(=O)N2CCS(=O)(=O)C(c3cccs3)C2)ccc1Cl (single isomer, unassigned) [Compound 9b, (4-chloro-3-methyl-phenyl)-[1,1-dioxo-2-(2-thienyl)-1,4-thiazinan-4-yl]methanone] | 6.30 to 7.00 |
| Cn1cnc(-c2ccc(C3CN(C(=O)c4ccc(Br)c(Cl)c4)CCS3(=O)=O)s2)c1 (single isomer, unassigned) [Compound 16a, (4-bromo-3-chloro-phenyl)-[2-[5-(1-methylimidazol-4-yl)-2-thienyl]-1,1-dioxo-1,4-thiazinan-4-yl]methanone] | 6.30 to 7.00 |
| Cn1cnc(-c2ccc(C3CN(C(=O)c4ccc(Br)c(Cl)c4)CCS3(=O)=O)s2)c1 (single isomer, unassigned) [Compound 16b, (4-bromo-3-chloro-phenyl)-[2-[5-(1-methylimidazol-4-yl)-2-thienyl]-1,1-dioxo-1,4-thiazinan-4-yl]methanone] | 5.30 to 6.30 |
| O=C(c1ccc(Br)c(Cl)c1)N1CCS(=O)(=O)C(c2cccs2)C1 (stereo not drawn) [Compound 6b, (4-bromo-3-chloro-phenyl)-[1,1-dioxo-2-(2-thienyl)-1,4-thiazinan-4-yl]methanone] | 6.30 to 7.00 |

System: HBV
Experiment: HBV-DNA Antiviral Assay Using HepG2.117 Cells
Format: cell-based
Details: Hepatitis B virus, HepG2.117, 96 h, intracellular HBV DNA by qPCR, day 4
Protocol: The following assay procedure describes the HBV antiviral assay, using HepG2.117 cells, which carry a stably integrated genotype D HBV genome under the control of a Tet-off promoter, and intracellular HBV DNA quantification as endpoint. Cell viability is assessed in parallel by measuring the intracellular ATP content using ATPlite (Perkin Elmer).
On day 0, HepG2.117 cells (which are maintained in routine cell culture with doxycycline present in the medium at a final concentration of 1 μg/mL) were seeded in 96-well plates (white with clear bottom) at a density of 2.0×10^4 cells/well (0.1 mL/well) in medium without doxycycline to induce pgRNA transcription and subsequent formation of HBV particles. The cells were incubated at 37° C. and 5% CO2.
On day 1, medium was removed from each well, the test articles were diluted in culture medium without doxcycyline and 100 μL was added to cell culture wells (9 concentrations, 4-fold dilution). For each plate, 6 untreated (merely DMSO) wells were included. The final concentration of DMSO in the culture medium was 2%. Each plate was prepared in duplicate (one for HBV DNA extraction, one for ATPlite measurement). The cells were incubated at 37° C. and 5% CO2 for 3 days.
On day 4, cell viability was assessed using ATPlite and cell lysates were prepared for HBV DNA extraction and subsequent quantification by qPCR.
Medium was removed from each well and 100 μL of 0.33% NP-40 in H2O was added to each well. Plates were sealed, incubated at 4° C. for 5 mins, vortexed extensively and centrifuged briefly. Next, 35 μL of lysate was added to 65 μL QuickExtract DNA Extraction Solution (Epicentre) in a PCR plate for each well. PCR plate was incubated at 65° C. for 6 mins, 98° C. for 2 mins and finally cooled to 4° C. HBV DNA was then quantified by qPCR with HBV-specific primers and probes as specified in Table 2 using the Bio-Rad SSOAdvanced Universal Probes Supermix on a CFX96 machine (Bio-Rad). The PCR cycle program consisted of 95° C. for 3 mins, followed by 40 cycles at 95° C. for 10 sec and 60° C. for 30 sec.
A DNA standard was prepared by dilution of an IDT gBlock corresponding to the amplicon with concentrations ranging from 10^2 to 10^8 copies/input (i.e. per 4 μL) and used to generate a standard curve by plotting Cq values vs. HBV DNA standard concentration. The quantity of HBV DNA in each sample was determined by interpolating from the standard curve.
Cell viability was calculated as follows: % Cell viability=(luminescence value of test sample)/(average luminescence value of 2% DMSO control)×100%. HBV DNA inhibition was calculated as follows: 100−(HBV DNA copy number of test sample)/(average HBV DNA copy number of 2% DMSO control)×100%. No normalization to entecavir was required due to the excellent dynamic window of this assay. The CC50, EC so and EC90 values were determined by dose-response curves fitted by GraphPad Prism using “log (agonist) vs. response—Variable slope”.

| Structure (SMILES) | pEC50 |
| --- | --- |
| O=C(c1ccc(Br)c(Cl)c1)N1CCS(=O)(=O)[C@](F)(c2ncc(Cc3ccccc3)s2)C1 [Compound 37a, (4-bromo-3-chloro-phenyl)-[(2S)-2-(5-benzylthiazol-2-yl)-2-fluoro-1,1-dioxo-1,4-thiazinan-4-yl]methanone] | ≥ 7.00 |
| O=C(c1ccc(Br)c(Cl)c1)N1CCS(=O)(=O)[C@@](F)(c2ncc(Cc3ccccc3)s2)C1 [Compound 37b, (4-bromo-3-chloro-phenyl)-[(2R)-2-(5-benzylthiazol-2-yl)-2-fluoro-1,1-dioxo-1,4-thiazinan-4-yl]methanone] | 5.30 to 6.30 |
| O=C(c1ccc(Br)c(Cl)c1)N1CCS(=O)(=O)[C@](F)(C(=O)NCCc2ccccc2)C1 [Compound 38a] | < 5.30 |
| O=C(c1ccc(Br)c(Cl)c1)N1CCS(=O)(=O)[C@@](F)(C(=O)NCCc2ccccc2)C1 [Compound 38b] | 5.30 to 6.30 |
| O=C(c1ccc(Br)c(Cl)c1)N1CCS(=O)(=O)[C@@](F)(c2ncc(-c3ccccc3)s2)C1 [Compound 39] | 5.30 to 6.30 |
| N#Cc1cc(C(=O)N2CCS(=O)(=O)[C@](F)(c3ncc(Cc4ccccc4)s3)C2)ccc1Br [Compound 40a] | 5.30 to 6.30 |
| N#Cc1cc(C(=O)N2CCS(=O)(=O)[C@@](F)(c3ncc(Cc4ccccc4)s3)C2)ccc1Br [Compound 40b] | ≥ 7.00 |
| C[C@H](c1ccccc1)c1cnc([C@@]2(F)CN(C(=O)c3ccc(Br)c(Cl)c3)CCS2(=O)=O)s1 [Compound 41a] | ≥ 7.00 |
| C[C@@H](c1ccccc1)c1cnc([C@@]2(F)CN(C(=O)c3ccc(Br)c(Cl)c3)CCS2(=O)=O)s1 [Compound 41b] | ≥ 7.00 |
| C[C@H](c1ccccc1)c1cnc([C@]2(F)CN(C(=O)c3ccc(Br)c(Cl)c3)CCS2(=O)=O)s1 [Compound 41c] | 5.30 to 6.30 |
| C[C@@H](c1ccccc1)c1cnc([C@]2(F)CN(C(=O)c3ccc(Br)c(Cl)c3)CCS2(=O)=O)s1 [Compound 41d] | 5.30 to 6.30 |
| C[C@@H](c1cnc([C@@]2(F)CN(C(=O)c3ccc(Br)c(C#N)c3)CCS2(=O)=O)s1)c1ccccc1F [Compound 43a] | ≥ 7.00 |
| C[C@H](c1cnc([C@@]2(F)CN(C(=O)c3ccc(Br)c(C#N)c3)CCS2(=O)=O)s1)c1ccccc1F [Compound 43b] | ≥ 7.00 |
| C[C@@H](c1cnc([C@]2(F)CN(C(=O)c3ccc(Br)c(C#N)c3)CCS2(=O)=O)s1)c1ccccc1F [Compound 43c] | 5.30 to 6.30 |
| C[C@H](c1cnc([C@]2(F)CN(C(=O)c3ccc(Br)c(C#N)c3)CCS2(=O)=O)s1)c1ccccc1F [Compound 43d] | 5.30 to 6.30 |
| N#Cc1cc(C(=O)N2CCS(=O)(=O)[C@@](F)(c3ncc(Cc4ccccc4-c4ncccn4)s3)C2)ccc1Br [Compound 45a] | ≥ 7.00 |
| N#Cc1cc(C(=O)N2CCS(=O)(=O)[C@](F)(c3ncc(Cc4ccccc4-c4ncccn4)s3)C2)ccc1Br [Compound 45b] | 5.30 to 6.30 |
| O=C(c1ccc(Br)c(Cl)c1)N1CCS(=O)(=O)[C@@](F)(c2ncc(Cc3ccccc3)o2)C1 [Compound 46a, (R)-(2-(5-benzyloxazol-2-yl)-2-fluoro-1,1-dioxidothiomorpholino)(4-bromo-3-chlorophenyl)methanone] | ≥ 7.00 |
| COc1ccc(Cc2cnc([C@]3(F)CN(C(=O)c4ccc(Br)c(Cl)c4)CCS3(=O)=O)s2)c(OC)c1 [Compound 49a] | 5.30 to 6.30 |
